Experimental data reported in patent US7709242B2, “L-tyrosine producing bacterium and a method for producing L-tyrosine” (Ajinomoto Co., Inc., priority 2004, dated 2010).

Columns and labels:
[1] = target: T1, wild-type PDH (prephenate dehydrogenase) (Escherichia coli, UniProt P07023); assay: PDH activity in crude enzyme solution at L-tyrosine concentrations, wild-type PDH; type: biochemical; conditions: in the presence of 100 μM L-tyrosine; strain carrying wild-type PDH
T1 construct: made in house; host or cells: Escherichia coli (crude enzyme solution of sonicated cells)
Description: Such mutant PDH can be obtained by introducing amino acid substitutions into wild-type PDHs and selecting a PDH which is not subject to feedback inhibition by L-tyrosine due to the amino acid substitution-introduced PDHs. Specifically, nucleotide substitutions causing amino acid substitutions are introduced into a DNA encoding PDH (e.g., SEQ ID NO: 1) by the use of, for example, site-directed mutagenesis using PCR or the like, and an Escherichia bacterium, preferably an Escherichia bacterium in which a wild-type PDH gene is disrupted is transformed with the mutated DNA. The PDH activity of the bacterium is then measured in the presence and absence of L-tyrosine, and a strain in which PDH is resistant to feedback inhibition by L-tyrosine is selected. PDH activity can be measured according to the method described in Biochemistry. 1990 Nov. 6; 29(44): 10245-54.
W3110 ΔtyrR,tyrA/pSTVtyrA-1, -2, -5, -10, and -24 strains were cultured at 37° C. for 15 hours in a LB medium, respectively and each culture solution was centrifuged to collect bacterial cells. […] Then, the PDH activity was measured according to the method described in Biochemistry. […] That is, the enzyme reaction was performed at 30° C. for 10 minutes in 50 mM Tris-HCl (pH 7.5) containing 0.25 mM prephenate, 1 mM EDTA, 1 mM DTT, and 2 mM NAD, and the generated NADH was measured at an absorption wavelength of 340 nm. […]

[2] = target: T2, PDH of W3110 ΔtyrR,tyrA/pSTVtyrA-1 strain (tyrA(mut), P100S/T260I) (Escherichia coli, UniProt P07023, P100S/T260I); assay: PDH activity in crude enzyme solution at L-tyrosine concentrations, pSTVtyrA-1 strain; type: biochemical; conditions: in the presence of 800 μM L-tyrosine
T2 construct: The resulting mutated fragment was then ligated to pSTV28; made in house; host or cells: Escherichia coli W3110 ΔtyrR,tyrA (endogenous tyrA disrupted), plasmid pSTV28; crude enzyme solution
Method: (§1) W3110 ΔtyrR,tyrA/pSTVtyrA-1, -2, -5, -10, and -24 strains were cultured at 37° C. for 15 hours in a LB medium, respectively and each culture solution was centrifuged to collect bacterial cells. Next, after the bacterial cells were washed twice with 50 mM Tris-HCl (pH 7.5) and suspended in 50 mM Tris-HCl (pH 7.5) containing 20% glycerol on ice, a crude enzyme solution was prepared by repeating 30 second-ultrasonication 80 times. Then, the PDH activity was measured according to the method described in Biochemistry. 1990 Nov. 6; 29(44): 10245-54. That is, the enzyme reaction was performed at 30° C. for 10 minutes in 50 mM Tris-HCl (pH 7.5) containing 0.25 mM prephenate, 1 mM EDTA, 1 mM DTT, and 2 mM NAD, and the generated NADH was measured at an absorption wavelength of 340 nm. A protein assay was carried out by the Bradford method. […] Hereinafter, this tyrA gene inserted into pSTVtyrA-1 is referred to as tyrA(mut).
The nucleotide sequence of the tyrA(mut) gene was determined according to a standard method. In this mutant, proline at position 100 and threonine at position 260 were replaced by serine and isoleucine, respectively. […] The obtained strains were cultured and L-tyrosine production was evaluated. […]

[3] = target: T3, PDH containing the T260I mutation (Escherichia coli, UniProt P07023, T260I); assay: PDH activity in crude enzyme solution at tyrosine concentrations, T260I mutant; type: biochemical; conditions: in the presence of 800 μM tyrosine; strain harboring PDH with T260I
T3 construct: EcoRI-CpoI fragment containing no mutation excised from pSTVtyrA(W) was connected to the vector fragment of EcoRI-CpoI-digested pSTVtyrA(mut); made in house; host or cells: Escherichia coli W3110 ΔtyrR,tyrA, plasmid pSTVtyrA(T260I); crude enzyme solution
Method: (§2) A strain containing mutant 7 (257/265), a strain containing mutant 6 (254/269), both shown in Table 3, and a strain containing the T260I mutation shown in Table 2 were cultured at 37° C. for 15 hours in LB medium, and after the culture, the resulting culture was centrifuged to collect bacterial cells. Then, after the bacterial cells were washed twice with 50 mM Tris-HCl (pH 7.5) and suspended in 50 mM Tris-HCl (pH 7.5) containing 20% glycerol on ice, a crude enzyme solution was prepared by repeating 30 second-ultrasonication 80 times. PDH activity was measured according to the method described in Biochemistry. 1990 Nov. 6; 29(44): 10245-54. That is, a reaction was carried out at 30° C. for 10 minutes in 50 mM Tris-HCl (pH 7.5) containing 0.25 mM prephenate, 1 mM EDTA, 1 mM DTT, and 2 mM NAD^+, and NADH was measured at an absorption wavelength of 340 nm. A protein assay was carried out by the Bradford method. […] However, the PDH activity of the strain harboring the PDH with the 257/265 mutation could not be measured even though the L-tyrosine yield was high.

[4] = target: PDH (encoded by the tyrA gene) (Escherichia coli, UniProt P07023); conditions: Biochemistry. 1985 Feb. 26; 24(5): 1116; cited from earlier work
[5] = target: T4, PDH containing the 254/269 mutations (mutant 6, A254G/E269Y) (Escherichia coli, UniProt P07023, A254G/E269Y); assay: PDH activity in crude enzyme solution at tyrosine concentrations, 254/269 mutant; type: biochemical; conditions: in the presence of 800 μM tyrosine; strain harboring PDH with 254/269 mutations
T4 construct: amplify a full length fragment of the tyrA gene which has mutations introduced; made in house; host or cells: Escherichia coli W3110 ΔtyrR,tyrA, plasmid pSTV28 (SmaI site); crude enzyme solution
Method: as §2

[6] = tested on: PDH of strains carrying pSTVtyrA-2, -5, -10, and -24; assay: PDH activity in crude enzyme solution at L-tyrosine concentrations, pSTVtyrA-2, -5, -10, -24 strains; type: biochemical, Escherichia coli; conditions: in the presence of 100 μM L-tyrosine
Method: as §1

T4 sequence (P07023 whole entry A254G/E269Y, the tested form may be a part): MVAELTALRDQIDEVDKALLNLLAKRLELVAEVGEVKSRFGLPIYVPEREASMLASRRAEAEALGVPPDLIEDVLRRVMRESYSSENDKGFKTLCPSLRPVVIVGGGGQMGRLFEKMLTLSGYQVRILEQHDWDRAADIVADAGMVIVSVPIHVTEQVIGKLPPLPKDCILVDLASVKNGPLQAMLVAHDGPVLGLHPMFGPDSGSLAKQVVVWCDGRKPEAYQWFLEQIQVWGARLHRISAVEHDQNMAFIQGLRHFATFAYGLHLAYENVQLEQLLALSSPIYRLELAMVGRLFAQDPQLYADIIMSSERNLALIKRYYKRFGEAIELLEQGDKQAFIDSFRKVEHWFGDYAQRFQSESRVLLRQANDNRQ
T1 sequence (P07023 whole entry): as the sequence (P07023 whole entry A254G/E269Y, the tested form may be a part) above, with G254A, Y269E counted along it
PDH (encoded by the tyrA gene), sequence (P07023 whole entry): as the sequence (P07023 whole entry A254G/E269Y, the tested form may be a part) above, with G254A, Y269E counted along it
T3 sequence (P07023 whole entry T260I, the tested form may be a part): as the sequence (P07023 whole entry A254G/E269Y, the tested form may be a part) above, with G254A, T260I, Y269E counted along it
T2 sequence (P07023 whole entry P100S/T260I, the tested form may be a part): as the sequence (P07023 whole entry A254G/E269Y, the tested form may be a part) above, with P100S, G254A, T260I, Y269E counted along it

N[C@@H](Cc1ccc(O)cc1)C(=O)O [L-tyrosine]
inhibition of PDH activity [1]: strongly inhibited
inhibition of PDH activity [2]: almost no inhibition
inhibition of PDH activity [3]: almost no inhibition
concentration of L-tyrosine at which PDH is inhibited (as low as) [4]: 300 µM
inhibition of PDH activity [5]: almost no inhibition
inhibition of PDH activity [6]: strongly inhibited
